Assays:
Scedosporium prolificans = experiment: Antifungal activity in vitro, resazurin growth inhibition screen: Scedosporium prolificans; format: cell-based; conditions: Lomentospora prolificans; Scedosporium prolificans IHEM21157; read-out: Inf. I pIC50 (converted)
Description: (§1) The standard susceptibility screen was performed in 96-well plates (U-bottom, Greiner Bio-One). Serial dilutions (2-fold or 4-fold) of 20 mM compound stock solutions were made in 100% DMSO, followed by an intermediate dilution step in water. These serial dilutions (10 μl) were then spotted onto test-plates that could be stored in the dark at 4° C. for a maximum period of 2 weeks. An adequate broad dose-range was included with 64 μM as the highest in-test concentration. […] The different fungal species/isolates (Table 3a) were cryopreserved and 1/1000 diluted in medium just prior to use. A standard inoculum of 200 μl containing 10^3 colony-forming unit (cfu) was then added to each well. A positive control (100% growth=fungal culture without antifungal) and a negative control (0% growth=RPMI-MOPS medium) were included on each plate.

Rhizomucor miehei = experiment: Antifungal activity in vitro, resazurin growth inhibition screen: Rhizomucor miehei; format: cell-based; conditions: Rhizomucor miehei IHEM13391; read-out: Inf. K pIC50 (converted)
Description: as §1

Trichophyton rubrum = experiment: Antifungal activity in vitro, resazurin growth inhibition screen: Trichophyton rubrum; format: cell-based; conditions: Trichophyton rubrum B68183; read-out: Inf. C pIC50 (converted)
Summary of the method: (§2)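 Dilute compounds 2- or 4-fold in DMSO, then in water, and spot onto plates. Add 10^3 cfu of fungus in RPMI-MOPS per well, with the highest test concentration at 64 μM. Score growth by resazurin relative to untreated and medium-only controls.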

Rhizopus oryzae = experiment: Antifungal activity in vitro, resazurin growth inhibition screen: Rhizopus oryzae; format: cell-based; conditions: Rhizopus arrhizus; Rhizopus oryzae IHEM5223; read-out: Inf. J pIC50 (converted)
Description: as §1

Aspergillus fumigatus = experiment: Antifungal activity in vitro, resazurin growth inhibition screen: Aspergillus fumigatus; format: cell-based; conditions: Aspergillus fumigatus B42928; read-out: Inf. E pIC50 (converted)
Summary of the method: as §2

Cryptococcus neoformans = experiment: Antifungal activity in vitro, resazurin growth inhibition screen: Cryptococcus neoformans; format: cell-based; conditions: Cryptococcus neoformans B66663; read-out: Inf. F pIC50 (converted)
Summary of the method: as §2

Microsporum canis = experiment: Antifungal activity in vitro, resazurin growth inhibition screen: Microsporum canis; format: cell-based; conditions: Microsporum canis B68128; read-out: Inf. B pIC50 (converted)
Summary of the method: as §2

Scedosporium apiospermum = experiment: Antifungal activity in vitro, resazurin growth inhibition screen: Scedosporium apiospermum; format: cell-based; conditions: Scedosporium apiospermum IHEM3817; read-out: Inf. H pIC50 (converted)
Description: as §1

Candida parapsilosis = experiment: Antifungal activity in vitro, resazurin growth inhibition screen: Candida parapsilosis; format: cell-based; conditions: Lodderomyces parapsilosis; Candida parapsilosis B66126; read-out: Inf. D pIC50 (converted)
Summary of the method: as §2

Sporothrix schenkii = experiment: Antifungal activity in vitro, resazurin growth inhibition screen: Sporothrix schenkii; format: cell-based; conditions: Sporothrix schenkii B62482; read-out: Inf. A pIC50 (converted)
Summary of the method: as §2

[1] = tested on: Trichophyton mentagrophytes; experiment: Antifungal activity in vitro, resazurin growth inhibition screen: Trichophyton mentagrophytes; format: cell-based; conditions: Trichophyton mentagrophytes B70554; read-out: Inf. G pIC50 (converted)
Summary of the method: as §2

Compound | IC50 (Scedosporium prolificans) | IC50 (Rhizomucor miehei) | IC50 (Trichophyton rubrum) | IC50 (Rhizopus oryzae) | IC50 (Aspergillus fumigatus) | IC50 (Cryptococcus neoformans) | IC50 (Microsporum canis) | IC50 (Scedosporium apiospermum) | melting point | IC50 (Candida parapsilosis) | IC50 (Sporothrix schenkii) | IC50 [1]
Clc1cccc2c1CN=C(c1ccc3c(c1)CCO3)c1cccn1-2 [Compound 35, 7-chloro-4-(2,3-dihydro-5-benzofuranyl)-6H-pyrrolo[1,2-a][1,4]benzodiazepine] | 1.29 µM | 53.7 µM | 0.437 µM | > 64.6 µM | 2 µM | 5.01 µM | 1 µM | 38.9 µM | 206.4 to 208.9 °C | 2 µM | 14.1 µM | 0.794 µM
Clc1cc(Cl)c2c(c1)-n1cccc1C(c1ccc3c(c1)CCO3)=NC2 [Compound 45, 7,9-dichloro-4-(2,3-dihydro-5-benzofuranyl)-6H-pyrrolo[1,2-a][1,4]benzodiazepine] | 6.17 µM | > 64.6 µM | 0.331 µM | > 64.6 µM | 1 µM | 1 µM | 0.257 µM | 32.4 µM | 190 to 191.8 °C | 7.94 µM | 3.02 µM | 0.331 µM
FC1(F)CCc2cc(C3=NCc4c(Cl)cccc4-n4cccc43)ccc2O1 [Compound 69, 7-chloro-4-(2,2-difluoro-3,4-dihydro-2H-1-benzopyran-6-yl)-6H-pyrrolo[1,2-a]-[1,4]benzodiazepine] | 0.708 µM | 0.468 µM | 0.123 µM | 1.2 µM | 0.129 µM | 0.0955 µM | 0.129 µM | 0.229 µM | 199.7 to 201.2 °C | 0.708 µM | 1.05 µM | 0.38 µM
Cn1c(=O)oc2ccc(C3=NCc4c(Cl)cccc4-n4cccc43)cc21 [Compound 80, 5-(7-chloro-6H-pyrrolo[1,2-a][1,4]benzodiazepin-4-yl)-3-methyl-2(3H)-benzoxazolone] | 22.4 µM | > 64.6 µM | 1.15 µM | > 64.6 µM | 0.562 µM | > 64.6 µM | 1.58 µM | 56.2 µM | 218.6 to 221 °C | 22.4 µM | 9.12 µM | 5.37 µM
Fc1cc(Cl)c2c(c1)-n1cccc1C(c1ccc3c(c1)CCC3(F)F)=NC2 [Compound 88, 7-chloro-4-(1,1-difluoro-2,3-dihydro-1H-inden-5-yl)-9-fluoro-6H-pyrrolo[1,2-a]-[1,4]benzodiazepine] | 2.57 µM | > 64.6 µM | 0.447 µM | > 64.6 µM | 0.417 µM | 0.407 µM | 0.537 µM | 0.17 µM | 170.2 to 171.8 °C | > 64.6 µM | 53.7 µM | 0.871 µM

The next lines start with the values.

IC50 (Scedosporium prolificans) | IC50 (Rhizomucor miehei) | IC50 (Trichophyton rubrum) | IC50 (Rhizopus oryzae) | IC50 (Aspergillus fumigatus) | IC50 (Cryptococcus neoformans) | IC50 (Microsporum canis) | IC50 (Scedosporium apiospermum) | melting point | IC50 (Candida parapsilosis) | IC50 (Sporothrix schenkii) | IC50 [1] | Compound
1.2 µM | > 64.6 µM | 0.132 µM | > 64.6 µM | 2 µM | 50.1 µM | 0.676 µM | 2.82 µM | 180.5 to 181.2 °C | 20.9 µM | 12.9 µM | 0.24 µM | Clc1cccc2c1CN=C(c1ccc3c(c1)OCC3)c1cccn1-2 [Compound 36, 7-chloro-4-(2,3-dihydro-6-benzofuranyl)-6H-pyrrolo[1,2-a][1,4]benzodiazepine]
0.11 µM | 4.79 µM | 0.182 µM | > 64.6 µM | 0.363 µM | 1.32 µM | 0.17 µM | 0.447 µM | 226.7 to 227.6 °C | 2.88 µM | 2.24 µM | 0.562 µM | O=C1CCc2cc(C3=NCc4c(Cl)cccc4-n4cccc43)ccc21 [Compound 56, 5-(7-chloro-6H-pyrrolo[1,2-a][1,4]benzodiazepin-4-yl)-2,3-dihydro-1H-inden-1-one]
9.33 µM | 6.92 µM | 0.204 µM | 49 µM | 0.135 µM | 0.417 µM | 0.166 µM | 5.89 µM | 209.8 to 210.7 °C | > 64.6 µM | 2.14 µM | 0.324 µM | O=C1CCCc2cc(C3=NCc4c(Cl)cccc4-n4cccc43)ccc21 [Compound 58, 6-(7-chloro-6H-pyrrolo[1,2-a][1,4]benzodiazepin-4-yl)-3,4-dihydro-1(2H)-naphthalenone]
1.58 µM | > 64.6 µM | 7.41 µM | > 64.6 µM | > 64.6 µM | > 64.6 µM | 55 µM | 0.933 µM | 224.6 to 246 °C | > 64.6 µM | > 64.6 µM | > 64.6 µM | O=C1OCc2ccc(C3=NCc4c(F)cccc4-n4cccc43)cc21 [Compound 63, 6-(7-fluoro-6H-pyrrolo[1,2-a][1,4]benzodiazepin-4-yl)-1(3H)-isobenzofuranone]
0.589 µM | > 64.6 µM | 1.82 µM | > 64.6 µM | 0.372 µM | 10.2 µM | 2.04 µM | 0.759 µM | 251.2 to 253 °C | 5.13 µM | 7.76 µM | 1.91 µM | O=C1OCc2cc(C3=NCc4c(Cl)cccc4-n4cccc43)ccc21 [Compound 65, 5-(7-chloro-6H-pyrrolo[1,2-a][1,4]benzodiazepin-4-yl)-1(3H)-isobenzofuranone]
